Source: patent EP3246013A1, “INHIBITION OF THE ADHESION OF MICROORGANISMS PATHOGENATED BY A STEARATE AND/OR SORBITAN SUCROSE IN THE COSMETIC TREATMENT OF ATOPIC DERMATITIS” (priority 2012, dated 2014)

Key:
Staphylococcus aureus = assay: In vitro inhibition of adhesion of S. aureus on a solid support (glass chamber slide), crystal violet staining and automatic counting; assay type: cell-based; settings: for Nombre de cellules par champ: adhesion to glass slide, mean of three fields ± SD, water control 99 ± 11; for inhibition de l'adhésion (% par rapport au témoin eau): glass slide
Protocol: Le protocole suivant est mis en oeuvre : • Une préculture de S. aureus issue du laboratoire de bactériologie clinique de l'hôpital de la Timone (CIP 65-8) est réalisée dans du milieu 'Nutrient Broth N° 2' (Oxoid), pendant 12h, à 37°C; • La culture est centrifugée à 9 000 g, pendant 10 min et le culot bactérien est remis en suspension dans un tampon phosphate (PBS); • A partir de cette suspension, une dilution au 1/50 est réalisée dans une solution aqueuse ou une solution aqueuse contenant le composé polyhydroxylé à tester. Il s'agit soit du xylitol, soit du sucrostéarate HLB 16 (SURFHOPE™ C1816); • Les bactéries sont préincubées en présence du composé polyhydroxylé à tester pendant 45 min, à 37 °C; • Le mélange (100 µl) est ensuite déposé dans un puits d'une lame cytologique en verre, de surface fixe (0,8 cm^2) et délimitée par des parois, c'est-à-dire une lame adaptée à la culture cellulaire (Chamber Slide System, Labtek); • Les cultures bactériennes sont ensuite incubées à 37°C, pendant 60 min et ultérieurement rincées délicatement avec de l'eau ultra pure, ce qui permet d'éliminer les bactéries n'ayant pas adhéré à la surface du puits de la lame; • Les bactéries ayant adhéré dans chaque puits sont par la suite colorées par le cristal violet pendant 10 secondes, puis rincées et séchées pendant 12h, à 25°C; • Les bactéries sont enfin observées à l'aide d'un microscope optique, par grossissement x 1000, en immersion, les champs étant parfaitement homogènes; • Un comptage automatique des bactéries dans chaque puits est finalement réalisé à l'aide d'un logiciel approprié.
Selon ce protocole, l'effet des composés polyhydroxylés a été analysé pour l'activité d'inhibition de l'adhésion de S. aureus sur le support solide. Le xylitol à une concentration finale de 0,5% et le sucrostéarate HLB 16 (sucrose monostéarate, SURFHOPE C18-C16) à une concentration finale de 1% ont été testés. Tableau 1 : Effets du xylitol (0,5%) et du sucrostéarate HLB 16 (1%) sur l'adhésion de S. aureus à la surface des lames de verre. Les résultats correspondent à une moyenne du comptage de trois champs, qui est présentée avec l'écart type correspondant.

S. aureus = assay: Ex vivo inhibition of adhesion of S. aureus on human corneocytes (D-Squame discs), crystal violet staining and image counting; assay type: cell-based, Staphylococcus aureus; settings: for Inhibition de l'adhésion de S. aureus (%) Essai 1 / Inhibition de l'adhésion de S. aureus (%) Essai 2: human corneocytes; for Inhibition de l'adhésion de S. aureus (%) Essai 1: trial 1; for Inhibition de l'adhésion de S. aureus (%) Essai 2: trial 2
Protocol: Afin de corroborer les résultats obtenus in vitro, un test d'adhésion ex vivo sur des cornéocytes humains a été mis au point d'après la méthode réalisée chez le chien (McEwan et al., 2005).
La souche clinique de S. aureus (CIP 65-8) a été prélevée sur un patient, au sein du laboratoire de bactériologie clinique de l'hôpital de la Timone à Marseille.
La souche de S. aureus est inoculée dans 10 ml de milieu 'Nutrient Broth N° 2' (Oxoid) et incubée sous agitation à 37°C pendant 12 heures. Les bactéries sont collectées par centrifugation et le culot bactérien est remis en suspension dans un tampon phosphate PBS. La population bactérienne est ajustée approximativement à 10^6 CFU/ml avec de l'eau osmosée.
Des zones cibles sont délimitées sur chaque bras d'un volontaire humain. Pour chaque zone, les débris cutanés sont éliminés grâce à 5 « pré-strippings » successifs avec des disques Sellotape™Original (diamètre 22 mm). Les cornéocytes sont ensuite collectés sur chaque zone cible à l'aide de disques adhésifs D-Squame™ (diamètre 22 mm) et d'un applicateur de disque D-Squame réglé à la pression de 150 g/cm^2.
Les disques sont ensuite placés dans des boîtes de Pétri, de diamètre 35 mm. Les disques sont alors recouverts par 0,5 ml d'eau ou 0,5 ml de la solution de S. aureus à 10^6 CFU/ml, contenant le composé polyhydroxylé à tester, à raison de trois zones pour chacun d'entre eux.
Les composés polyhydroxylés testés avec ce protocole expérimental sont : • le xylitol, à une concentration finale de 0,5%; • le sucrose stéarate HLB 16 (sucrose monostéarate, SURFHOPE C1816,), à une concentration finale de 1%, • le sucrose laurate monoester (SURFHOPE C1216), à une concentration finale de 0,1 %, • le polysorbate 60, à une concentration finale de 0,1%, • le polysorbate 60, à une concentration finale de 1%, • le polysorbate 20, à une concentration finale de 0,1%,
Toutes les solutions sont préparées dans de l'eau et mises en contact avec S. aureus à température ambiante 45 min avant le début de l'expérience d'adhésion. Les boites sont ensuite incubées à 37°C pendant 60 min. Les disques sont alors rincés avec de l'eau osmosée, ce qui permet d'éliminer les bactéries n'ayant pas adhéré aux cornéocytes. Les bactéries ayant adhéré aux cornéocytes humains sont alors colorées par du cristal violet oxalaté pendant 10 secondes. Les disques sont enfin rincés avec de l'eau osmosée, placés sur une lame de microscope et séchés à l'air libre pendant 24 h.
Les images des bactéries adhérentes sont acquises à l'aide d'un microscope Olympus BX 53 couplé à une caméra numérique. Les images collectées sont ensuite analysées par le logiciel UTHSCSA Image Tool (Reindeer Graphics Inc.). Le nombre de bactéries par disque est calculé par une moyenne arithmétique de 10 à 12 images, ce qui correspond à la surface d'environ 100 cornéocytes. Les comparaisons entre différentes moyennes sont effectuées avec le logiciel Statgraphics Plus (Manugistics Inc.).

Molecule | activité inhibitrice (adhésion de S. aureus sur les cornéocytes) (S. aureus; final concentration 1%) [%] | Inhibition de l'adhésion de S. aureus (%) Essai 1 (S. aureus; final concentration 1%) | effet sur l'adhésion de S. aureus sur les cornéocytes (S. aureus; final concentration 0,1%) | Inhibition de l'adhésion de S. aureus (%) Essai 1 (S. aureus; final concentration 0,1%) | other results
sucrose monostéarate [Sucrostéarate HLB 16] | ≥ 50 | 57,0% | – | – | Nombre de cellules par champ (Staphylococcus aureus; final concentration 1%): 12 ± 1; inhibition de l'adhésion (% par rapport au témoin eau) (Staphylococcus aureus; final concentration 1%): 88%; inhibition de l'adhésion de S. aureus à la surface des lames de verre (Staphylococcus aureus; text conclusion in words, 1%): forte inhibition; Inhibition de l'adhésion de S. aureus (%) Essai 2 (S. aureus; final concentration 1%): 49,6%
OC[C@@H](O)[C@H](O)[C@@H](O)CO [Xylitol, xylitol, reference compound] | – | – | – | – | Nombre de cellules par champ (Staphylococcus aureus; final concentration 0,5%): 91 ± 6; inhibition de l'adhésion (% par rapport au témoin eau) (Staphylococcus aureus; final concentration 0,5%): 8%; effet inhibiteur sur l'adhésion de S. aureus sur les cornéocytes (S. aureus; final concentration 0,5%): ~20%; Inhibition de l'adhésion de S. aureus (%) Essai 1 (S. aureus; final concentration 0,5%): 21,0%; Inhibition de l'adhésion de S. aureus (%) Essai 2 (S. aureus; final concentration 0,5%): 20,2%
monolaurate de sorbitan ethoxylé [Polysorbate 20] | – | – | résultats très satisfaisants | 57% | –
sucrose laurate monoester [reference compound] | – | – | augmentation significative de l'adhésion | -22.8% | –
monostéarate de sorbitan polyoxyethylène 20 [Polysorbate 60] | ≥ 50 | 54% | résultats très satisfaisants | 39,8% | –
